Experimental data as given in patent US11434250B2, “Pyrazolo[1,5a]pyrimidine derivatives as IRAK4 modulators” (Genentech, Inc., priority 2017, dated 2022).
In brackets after ≈: the same amount, converted by molar mass.

Experiments:
human IRAK4 = human IRAK4 (Homo sapiens (Human), UniProt Q9NWZ3); test: IRAK4 enzymatic assay (Transcreener fluorescence polarization, ADP detection); assay type: biochemical; conditions: recombinant full-length IRAK4; 125 uM ATP; 90 min
Protocol: Compounds were assayed for inhibition of human IRAK4 and IRAK1 catalytic activity using recombinant enzyme produced from insect cells. Full-length IRAK4 protein, carrying an N-terminal His6-Tag, was obtained from Life Technologies (Carlsbad, Calif., USA). The IRAK1 construct was produced internally and was comprised of IRAK1 residues Arg194 to Ser712, preceded by an NH2-terminal His6 tag and the coding sequence for glutathione-S-transferase.
Kinase activities were assayed using the Transcreener-Fluorecescence polarization platform (BelBrook Labs, Madison, Wis., USA) that measures amounts of the reaction product, ADP. […] Final IRAK4 assay conditions were 1.25 nM IRAK4; 125 uM ATP; 10 uM MgC2; 125 uM peptide in reaction buffer (25 mM HEPES (pH7.4); 2 mM Dithiothreitol; 0.015% Brij-35; and 0.5% dimethyl sulfoxide. The IRAK1 activity was optimized similarly, yielding final assay conditions of […] IRAK1; 62.5 uM ATP; 5 uM MgCl2, and 62.5 uM IRAK1 peptide in reaction buffer for 60 min.
Assays of compounds for kinase inhibition were performed using inhibitors serially-diluted in dimethyl sulfoxide, which was accomplished with a LabCyte Echo 555 liquid dispenser. 384 well assay plates spotted with compound received 4 ul of a 2× substrate (ATP+peptide) mix in reaction buffer, followed by 4 ul of 2× enzyme diluted in reaction buffer. Reactions were halted at 60 (IRAK1) or 90 (IRAK4) min by addition of 6 ul of detection buffer, containing EDTA ([…] final concentration), 0.95 ug of the ADP-binding antibody ADP2, ADP tracer (3 nM final concentration), and […] HEPES. Following a 1 hr incubation, fluorescence polarization of the ADP2-antibody::TRACER complex was read on a Tecan M1000 plate reader using a 635/20 excitation filter in combination with a 670/20 emission filter. Delta milli-P values were analyzed using Genedata software to fit dose-response curves and compute compound Ki values, using ATP Km values of 642 um and 83.2 uM for IRAK4 and IRAK1, respectively. Table 3 provides IRAK4 Ki values for representative compounds of the present invention.

Kinetic solubility assay = assay type: physicochemical; conditions: for solubility kinetic at 24 h: PBS buffer with 2% DMSO, aqueous buffer, kinetic from dmso stock, PBS buffer pH 7.4, 2% DMSO, 24 hours shaking at room temperature, UHPLC-CLND; for Fold improvement in kinetic solubility: example compound versus its matched pair phenyl compound
Protocol: The kinetic solubility assay started with compound DMSO stock solutions. This assay used Millipore Multiscreen 96-well filter plates for the 24 hour equilibration shaking. Samples were prepared by adding 4 μL of the 10 mM compound DMSO stock solutions into 196 μL of PBS buffer pH 7.4 in the 96-well filter plates, yielding a compound concentration of 200 μM and 2% DMSO. The filter plate was sealed with aluminum sealing film and shaken at room temperature for 24 hours at 1000 rpm. When shaking has completed, the solutions were filtered into a clean 96-well plate utilizing a vacuum manifold. After filtration, some precipitate is often observed at the bottom of the filtration plate wells. Most of the precipitates appear to be crystalline under a polarizing light microscope. The filtrate samples were diluted by a factor of 2 using PBS pH7.4 buffer and then transferred to a 384-well plate for analysis by UHPLC-CLND (CLND: Chemiluminescence nitrogen detector). 5 μL of each sample was injected twice into the UHPLC-CLND for two repeat analysis.
Samples were detected and analyzed using UV 254 nm and CLND. UV 254 nm is used primarily to confirm the sample purity but in rare cases, is also used to quantify the concentration of compounds with no nitrogens, where additional work is done to create a compound specific calibration curve. The identification of CLND target peaks of each compound were confirmed by LCMS. Sample quantification was accomplished by CLND peak intensity, the calibration curve, and the number of nitrogen contained in the compound. One calibration curve of caffeine was used for solubility quantitative determination. A fresh calibration curve was created for every batch. The number of nitrogens in a compound used for this quantification was corrected for the actual configuration of the nitrogen in the compound.

[1] = Plasma protein binding using rapid equilibrium dialysis (RED); assay type: in vitro ADME; conditions: pH 7.4, human plasma, 37° C., read-out: Human PPB (converted)
Protocol: Plasma protein binding was measured in duplicate using rapid equilibrium dialysis (RED) device ((Thermo Scientific Pierce) in a 96-well format. Briefly, 10.0 μL drug or control compounds (0.5 mM in DMSO) was mixed with 1000 μL plasma (pH adjusted to 7.4) from various species (BioreclamationIVT). Aliquots of 300 μL drug/plasma mixture were placed into the donor side chamber of a single-use RED plate, and 500 μL aliquots of PBS buffer were placed into the adjacent chamber as the receiver side. The plate was incubated on an orbital shaker at 400 rpm, at 37° C. for 4 hours. After completion of incubation, 50 μL aliquots from the PBS buffer side were mixed with 5 μL of blank plasma matrix, and 5 μL from the donor side (plasma) were mixed with 50 μL blank PBS buffer. All samples were then crashed with 200 μL acetonitrile (containing internal standard) to precipitate plasma proteins. The samples were centrifuged at 3750 rpm for 10 min to pellet the proteins. The supernatants were carefully transferred to a fresh 96-well plate, and diluted with an equivalent volume of water. The samples were then analyzed by LC-MS/MS (ABI 4000, ABI Sciex). Data acquisition and processing was performed with Analyst 1.6.1 and Multiquant 2.1. The percent of protein binding and fraction unbound (fu) in matrix was calculated from taking the ratio of responses (peak areas) on the receiver side (buffer) to those on the donor side (plasma). The ratios were normalized to the internal standard.

Chain of human IRAK4 (Q9NWZ3 whole entry, the tested form may be a part): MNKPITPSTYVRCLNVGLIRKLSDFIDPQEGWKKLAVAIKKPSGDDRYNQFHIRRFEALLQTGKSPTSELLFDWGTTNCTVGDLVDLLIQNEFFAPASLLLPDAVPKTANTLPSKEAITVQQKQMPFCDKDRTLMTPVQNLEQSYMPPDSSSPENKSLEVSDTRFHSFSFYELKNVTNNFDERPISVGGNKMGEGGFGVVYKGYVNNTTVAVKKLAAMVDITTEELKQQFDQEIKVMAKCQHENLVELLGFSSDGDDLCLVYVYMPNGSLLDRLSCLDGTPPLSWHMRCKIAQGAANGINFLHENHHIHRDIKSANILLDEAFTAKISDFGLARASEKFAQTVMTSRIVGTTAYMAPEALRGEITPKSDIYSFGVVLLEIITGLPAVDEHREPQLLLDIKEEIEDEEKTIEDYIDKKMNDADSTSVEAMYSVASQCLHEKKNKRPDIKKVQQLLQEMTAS

Row | SMILES | Ki (human IRAK4) [nM] | solubility kinetic at 24 h (Kinetic solubility assay) [µM] | Fold improvement in kinetic solubility (Kinetic solubility assay) | fraction unbound at 4 h, 5 µM [1]
1 | CC1(C)Cc2cc(NC(=O)c3cnn4cccnc34)c(N3CCOC[C@H]3CO)nc2O1 (single isomer, unassigned) [Example 7] | 2400 | – | – | –
2 | CC1(C)Cc2cc(NC(=O)c3cnn4cccnc34)c(N3CCOC[C@@H]3CO)nc2O1 (single isomer, unassigned) [Example 8] | 820 | – | – | –
3 | C[C@@]1(CO)Cc2cc(NC(=O)c3cnn4cccnc34)c(N3CCOCC3)nc2O1 (single isomer, unassigned) [Example 11] | 45 | 137 (≈ 56.2 µg/mL) | – | –
4 | CC(C)(O)[C@]1(C)Cc2cc(NC(=O)c3cnn4cccnc34)c(N3CCOCC3)nc2O1 (single isomer, unassigned) [Example 13] | 91 | – | – | –
5 | CC(C)(O)[C@@]1(C)Cc2cc(NC(=O)c3cnn4cccnc34)c(N3CCOCC3)nc2O1 (single isomer, unassigned) [Example 14] | 48 | – | – | –
6 | Cc1cnc2c(C(=O)Nc3cc4c(nc3N3CCN(CC(N)=O)CC3)O[C@](C)(CO)C4)cnn2c1 (single isomer, unassigned) [Example 15] | 6.6 | – | – | –
7 | Cc1cnc2c(C(=O)Nc3cc4c(nc3N3CCN(CC(N)=O)CC3)O[C@@](C)(CO)C4)cnn2c1 (single isomer, unassigned) [Example 16] | 5.5 | – | – | –
8 | CC1(CO)Cc2cc(NC(=O)c3cnn4cccnc34)c(N3CCOCC3)nc2O1 (stereo in doubt) [Example 10, (S)—N-(2-(Hydroxymethyl)-2-methyl-6-morpholino-2,3-dihydrofuro[2,3-b]pyridin-5-yl)pyrazolo[1,5-a]pyrimidine-3-carboxamide] | 88 | 159 (≈ 65.3 µg/mL) | 15.9 | –
9 | CC1(CO)Cc2cc(NC(=O)c3cnn4cccnc34)c(N3CCOCC3)nc2O1 (stereo in doubt) [Example 11, (R)—N-(2-(hydroxymethyl)-2-methyl-6-morpholino-2,3-dihydrofuro[2,3-b]pyridin-5-yl)pyrazolo[1,5-a]pyrimidine-3-carboxamide] | – | – | 13.7 | –
10 | C[C@]1(O)COc2nc(N3CCN(CC(F)F)CC3)c(NC(=O)c3cnn4cccnc34)cc2C1 (stereo in doubt) [Example 18, N-[rac-(3R)-7-[4-(2,2-difluoroethyl)piperazin-l-yl]-3-hydroxy-3-methyl-2,4-dihydropyrano[2,3-b]pyridin-6-yl]pyrazolo[1,5-a]pyrimidine-3-carboxamide] | 210 | 167 (≈ 79.1 µg/mL) | 12.8 | –
11 | C[C@@]1(O)COc2nc(N3CCN(CC(F)F)CC3)c(NC(=O)c3cnn4cccnc34)cc2C1 (stereo in doubt) [Example 19, N-[rac-(3S)-7-[4-(2,2-difluoroethyl)piperazin-l-yl]-3-hydroxy-3-methyl-2,4-dihydropyrano[2,3-b]pyridin-6-yl]pyrazolo[1,5-a[pyrimidine-3-carboxamide] | 31 | 177 (≈ 83.8 µg/mL) | 31.6 | –
12 | C[C@@]1(CO)Cc2cc(NC(=O)c3cnn4cccnc34)c(N3CCN(CC(F)F)CC3)nc2O1 (stereo in doubt) [Example 20, N-[rac-(2S)-6-[4-(2,2-difluoroethyl)piperazin-l-yl]-2-(hydroxymethyl)-2-methyl-3H-furo[2,3-b]pyridin-5-yl]pyrazolo[1,5-a]pyrimidine-3-carboxamide] | 9.1 | – | – | –
13 | C[C@]1(CO)Cc2cc(NC(=O)c3cnn4cccnc34)c(N3CCN(CC(F)F)CC3)nc2O1 (stereo in doubt) [Example 21, N-[rac-(2R)-6-[-(2,2-difluoroethyl)piperazin-l-yl]-2-(hydroxymethyl)-2-methyl-3H-furo[2,3-b]pyridin-5-yl]pyrazolo[1,5-a]pyrimidine-3-carboxamide] | 13 | 124 (≈ 58.7 µg/mL) | 27.0 | 0.363
14 | CC1(C)Cc2cc(NC(=O)c3cnn4cccnc34)c(N3CCOCC3)nc2O1 [Example 1, N-(2,2-dimethyl-6-morpholino-2,3-dihydrofuro[2,3-b]pyridin-5-yl)pyrazolo[1,5-a]pyrimidine-3-carboxamide] | 39 | 166 (≈ 65.5 µg/mL) | 166.0 | 0.143
15 | CC1(C)Cc2cc(NC(=O)c3cnn4cccnc34)c(N3CCC(CO)CC3)nc2O1 [Example 2, N-(6-(4-(Hydroxymethyl)piperidin-1-yl)-2,2-dimethyl-2,3-dihydrofuro[2,3-b]pyridin-5-yl)pyrazolo[1,5-a]pyrimidine-3-carboxamide] | 4.2 | – | – | 0.074
16 | Cc1cnc2c(C(=O)Nc3cc4c(nc3N3CCC(CO)CC3)OC(C)(C)C4)cnn2c1 [Example 3, N-(6-(4-(Hydroxymethyl)piperidin-1-yl)-2,2-dimethyl-2,3-dihydrofuro[2,3-b]pyridin-5-yl)-6-methylpyrazolo[1,5-a]pyrimidine-3-carboxamide] | 4.1 | 7.5 (≈ 3.27 µg/mL) | 7.5 | –
17 | CC1(C)Cc2cc(NC(=O)c3cnn4cccnc34)c(N3CCN(CCO)CC3)nc2O1 [Example 4, N-(6-(4-(2-Hydroxyethyl)piperazin-1-yl)-2,2-dimethyl-2,3-dihydrofuro[2,3-b]pyridin-5-yl)pyrazolo[1,5-a]pyrimidine-3-carboxamide] | 33 | – | – | –
18 | CC1(C)Cc2cc(NC(=O)c3cnn4cccnc34)c(N3CCC(F)(CO)CC3)nc2O1 [Example 5, N-[6-[4-Fluoro-4-(hydroxymethyl)-1-piperidyl]-2,2-dimethyl-3H-furo[2,3-b]pyridin-5-yl]pyrazolo[1,5-a]pyrimidine-3-carboxamide] | 5.6 | 112 (≈ 49.3 µg/mL) | 43.1 | –
19 | CN1Cc2cc(NC(=O)c3cnn4cccnc34)c(N3CCOCC3)nc2C1=O [Example 12, N-(6-Methyl-2-morpholino-7-oxo-6,7-dihydro-5H-pyrrolo[3,4-b]pyridin-3-yl)pyrazolo[1,5-a]pyrimidine-3-carboxamide] | 540 | 39 (≈ 15.3 µg/mL) | 5.7 | –
20 | CC1(C)Cc2cc(NC(=O)c3cnn4cccnc34)c(OCC3CC3)nc2O1 [Example 17, N-[6-(cyclopropylmethoxy)-2,2-dimethyl-3H-furo[2,3-b]pyridin-5-yl]pyrazolo[1,5-a]pyrimidine-3-carboxamide] | 6.4 | – | – | –
